# Measured values as given in patent publication US11040966B2, “Benzimidazole-proline derivatives” (IDORSIA PHARMACEUTICALS LTD, priority 2012, dated 2021).
# Like-named read-outs stand apart in the source and are kept apart here.
# What was measured:
# [1] = test system: amyloid precursor protein transgenic mice; details: after acute sleep restriction; cited from earlier work
# rats = rats treated with the compound; cited from earlier work
# humans = details: indication primary insomnia; cited from earlier work
# rat = details: cited from earlier work
# mouse = details: administered chronically; cited from earlier work
# [2] = Measurement of brain and systemic concentration after oral administration; type: in vivo; details: rat, male wistar rats, 3 h after oral administration (100 mg/kg), n=3
# Protocol: Measurement of Brain and Systemic Concentration after Oral Administration:
# In order to assess brain penetration, the concentration of the compound is measured in plasma ([P]), and brain ([B]), sampled 3 h (or at different time points) following oral administration (e.g. 100 mg/kg) to male wistar rats. The compounds are formulated e.g. in 100% PEG 400. Samples are collected in the same animal at the same time point (+/−5 min). Blood is sampled from the vena cava caudalis into containers with EDTA as anticoagulant and centrifuged to yield plasma. Brain is sampled after cardiac perfusion of 10 mL NaCl 0.9% and homogenized into one volume of cold phosphate buffer (pH 7.4). All samples are extracted with MeOH and analyzed by LC-MS/MS. Concentrations are determined with the help of calibration curves.
# rodents = details: cited from earlier work
# [3] = brain, read-out: concentration of the compound in brain ([B])
# [4] = plasma, read-out: concentration of the compound in plasma ([P])
Compound,"concentration at 3 h [2, 3] [ng/g]","concentration at 3 h [2, 4] [ng/mL]",further results
"CNC(=O)[C@@H](c1ccccc1)N1CCc2cc(OC)c(OC)cc2[C@@H]1CCc1ccc(C(F)(F)F)cc1 [(2R)-2-{(1S)-6,7-dimethoxy-1-[2-(4-trifluoromethyl-phenyl)-ethyl]-3,4-dihydro-1H-isoquinolin-2-yl}-N-methyl-2-phenyl-acetamide]",–,–,brain levels of amyloid-beta (Aβ) and Aβ plaque deposition [1]: decreased; declarative and non-declarative learning and memory (rats): intact; clinical efficacy (humans): showed clinical efficacy; activity in nicotine self-administration model (rat): displayed pharmacological activity; activity in mouse model of depression (mouse): antidepressant-like activity
"Cc1ccc(-n2nccn2)c(C(=O)N2CCC[C@@]2(C)c2nc3cc(Br)cc(C)c3[nH]2)c1 [Example 5.19, [(S)-2-(5-Bromo-7-methyl-1H-benzoimidazol-2-yl)-2-methyl-pyrrolidin-1-yl]-(5-methyl-2-[1,2,3]triazol-2-yl-phenyl)-methanone]",3880,2100,–
"COc1ccc(-n2nccn2)c(C(=O)N2CCC[C@@]2(C)c2nc3c(C)c(Cl)ccc3[nH]2)c1 [Example 5.36, [(S)-2-(5-Chloro-4-methyl-1H-benzoimidazol-2-yl)-2-methyl-pyrrolidin-1-yl]-(5-methoxy-2-[1,2,3]triazol-2-yl-phenyl)-methanone]",1810,1280,–
"Cc1ccc(-c2ncccn2)c(C(=O)N2CCC[C@@]2(C)c2nc3cc(Br)cc(C)c3[nH]2)c1 [Example 5.277, [(S)-2-(5-Bromo-7-methyl-1H-benzoimidazol-2-yl)-2-methyl-pyrrolidin-1-yl]-(5-methyl-2-pyrimidin-2-yl-phenyl)-methanone]",5880,3560,–
Cn1c(SCC(=O)N2CCC[C@H]2C(=O)Nc2ccccc2-c2ccccc2)nc2ccccc21 [N-biphenyl-2-yl-1-{[(1-methyl-1H-benzimidazol-2-yl)sulfanyl]acetyl}-L-prolinamide],–,–,behavioral (locomotor sensitization) and molecular (transcriptional responses) changes induced by repeated amphetamine administration (rodents): reduced
